# Measured values reported in publication PMC4515242, “ESR and X-ray Structure Investigations on the Binding and Mechanism of Inhibition of the Native State of Myeloperoxidase with Low Molecular Weight Fragments” (Applied Magnetic Resonance, 2015).
# How the values were obtained:
# [1] = target: T1, hMPO (Homo sapiens, UniProt P05164); assay: Reversible binding assay (filtration and ESR after washing); settings: bound complex washed with buffer, then ESR at 4 K
# T1 construct: purchased Biodesign A31804H
# T1 sequence (P05164 49-745): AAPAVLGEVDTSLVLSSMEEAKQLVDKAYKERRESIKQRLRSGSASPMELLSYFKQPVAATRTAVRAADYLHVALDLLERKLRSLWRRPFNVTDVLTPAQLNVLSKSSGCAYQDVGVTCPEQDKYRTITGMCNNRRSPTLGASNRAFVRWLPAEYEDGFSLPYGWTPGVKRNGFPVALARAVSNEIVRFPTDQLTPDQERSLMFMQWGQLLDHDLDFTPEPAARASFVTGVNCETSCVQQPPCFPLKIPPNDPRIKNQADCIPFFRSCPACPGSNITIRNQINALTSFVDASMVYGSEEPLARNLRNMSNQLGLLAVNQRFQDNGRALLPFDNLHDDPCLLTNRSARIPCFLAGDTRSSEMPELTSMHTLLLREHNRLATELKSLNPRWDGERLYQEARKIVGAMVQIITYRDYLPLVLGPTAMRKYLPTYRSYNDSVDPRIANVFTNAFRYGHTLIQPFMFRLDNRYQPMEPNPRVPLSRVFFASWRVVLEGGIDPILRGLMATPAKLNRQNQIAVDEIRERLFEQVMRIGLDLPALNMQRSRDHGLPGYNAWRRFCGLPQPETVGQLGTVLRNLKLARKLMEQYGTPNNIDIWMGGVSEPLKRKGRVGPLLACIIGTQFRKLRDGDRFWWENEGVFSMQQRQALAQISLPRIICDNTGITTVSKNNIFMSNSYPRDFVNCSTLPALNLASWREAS
# Procedure: We performed the following two assays for independently confirming the reversibility of binding. In the filtration method, hMPO stock (1.5 mg/ml) is diluted to 5 μg/ml with 20 mM phosphate buffer pH 7.4, 10 % glycerol (no gelatin). 120 μl of this solution is mixed with an equal volume of the compounds at a concentration of 30 μM (final concentration […]), followed by mixing in the plate and incubation for 15 min. at room temperature. 120 μl aliquot of this solution is transferred into separate YM30 Micron filter units and centrifuged 6 min at 9000 rpm, followed by the addition of 300 μl of the buffer and further centrifugation for 12 min. at 9000 rpm. Wash and centrifuge cycles are repeated 2 more times with 300 μl buffer, each followed by 12 min. centrifugation steps. The protein left on the membrane is mixed with the PB buffer to a final volume of 120 μl and subjected to Alpha screen method as described before to probe the nitration of Apo A1 peptide substrate which is taken as a confirmation of the restoration of the catalytic activity of the protein.
# In the ESR protocol, the methodology of Hori et al. was applied with some modifications.The protocol followed is similar to the binding assay except that a higher concentration of hMPO (9.2 μM final) is used. This is necessary as multiple washings followed by dilutions lead to considerable loss of the enzyme due to its retention on the membrane. After 5 min of incubation in the eppendorf at room temperature, the contents were transferred to an Amicon Ultra-4 tube (5 ml capacity) and filled with 4 ml of 0.1 M sodium acetate buffer (containing 50 mM NaCl) pH 6.0. Using spin conditions of 4000×g in a swinging bucket rotor at 20 °C, the samples are washed repeatedly (2×) followed with a final wash containing 1 ml of the sodium acetate buffer (chloride free) + 25 % n-propanol and then concentrated. The concentrated solution ca. 300 μl is transferred to ESR quartz tubes and measured at 4 K. A higher concentration of MPO in these reversible binding assays enabled a good ESR signal over noise from the washed (3X) sample.
# [2] = target: T1, hMPO; assay: Alpha screen assay: inhibition of MPO-initiated nitration of the Apo-A1 peptide ([…]); type: biochemical; settings: MPO 11.8 nM, pH 7.4, 45 min RT
# Procedure: In a typical experiment, MPO (11.8 nM final concentration) in 20 mM phosphate buffer pH 7.4, 10 % glycerol and 0.005 % gelatin (PB) is added to each well of a multi-well plate containing 20 μl PB ± compound (final concentration of DMSO = 0.9 %). The reaction is started by the addition of 20 μl PB containing 1.5 μM ApoAI peptide substrate, 300 μM diethylenetriaminepentaacetic acid (DTPA), 300 μM sodium nitrite, and 30 μM H2O2. The total reaction volume is 60 μl. The plates are incubated with agitation for 45 min at RT. The reaction is terminated with the addition of 20 μl of a stop solution containing 11.2 nM rabbit anti-nitrotyrosine antibody (final conc. of 2.8 nM), 100 μg/ml streptavidin donor beads, and 100 μg/ml protein A acceptor beads (final concentration of […]), FBS (1.6 % final concentration) in Superblock buffer. The plates are sealed, incubated in the dark for 1 h, and read on a Packard Fusion alpha plate reader.
# Through a chloride independent pathway, MPO catalyzes the one electron oxidation of nitrite ions to nitrogen dioxide radicals which then […] protein amino acids like Tyrosine. We used the Apo-A1 peptide substrate ([…]) to follow the nitration of the Tyrosine (indicated by Y in the scheme below): MPO+H2O2→Compound INO2-+Compound I→NO2·+Compound II [drawing 1] Our initial experiments focused on identifying inhibitors that bind to the heme to inhibit the above catalytic action. A representative set of inhibitors is collected in Fig. 1a (strong binders, vide infra) and b (non binders, vide infra).
reversibility of the binding [1],IC50 [2],SMILES
Reversible in its action,0.674 µM,O=C(O)c1n[nH]c(-c2ccccc2)c1O [LSN87637]
Reversible in its action,0.52 µM,O=C(O)c1nn(-c2ccccc2)cc1O [LSN17948]
Reversible in its action,0.669 µM,O=C(O)c1nn(-c2cccc3ccccc23)cc1O [LSN2944556]
